2 compounds from patent US20160017399A1, “ELECTROCHEMICAL-BASED ANALYTICAL TEST STRIP WITH ENZYMATIC REAGENT LAYER CONTAINING A NAPHTHOQUINONE-BASED MEDIATOR AND FAD-GDH” (LifeScan Scotland Limited, priority 2014, published 2016) can be followed below.

Where two headings read alike, the source gives them in different places.

Series [1] is described as follows: solubility at room temperature. It is filed as physicochemical. The source says:
Compound A is an orange amorphous solid, soluble in base and neutral phosphate buffer at room temperature. Compound A has the following beneficial electrochemical characteristics: • E0=0.086V vs Ag/AgCl (0.1M KCl) • kcat=900 s^−1 where E0 is the formal redox potential vs Ag/AgCl (compare to 0.25V for ferricyanide) and kcat is the rate constant for homogeneous electron transfer between the mediator (i.e., Compound A) and enzyme cofactor FAD. It is noted that E0 for ferricyanide is 0.25V and kcat for ferricyanide is 230 s^−1. Compound A has both an E0 that is beneficially lower than that of ferricyanide (and thus less is less susceptible to interferents) and a kcat that is beneficially higher than that of ferricyanide.
Compound B is an orange amorphous solid, soluble in base and neutral phosphate buffer at room temperature. […] has the following beneficial electrochemical characteristics: • E0=0.016V vs Ag/AgCl (0.1M KCl) • kcat=100 s^−1 where E0 is the formal redox potential vs Ag/AgCl (compare to 0.25V for ferricyanide) and kcat is the rate constant for homogeneous electron transfer between the mediator (i.e., Compound A) and enzyme cofactor FAD. It is noted that E0 for ferricyanide is 0.25V and kcat for ferricyanide is 230 s^−1. […]

Series [2] is described as follows: storage stability (glucose sensitivity after storage). As to conditions: storage for 26 days at 40 degrees Celsius. It is filed as physicochemical.

Take `O=C1C=C(SCCCS(=O)(=O)O)c2ccccc2C1=O` [Compound A, 1,2-naphthalenedione-4-(3-mercapto-1-propanesulfonic acid)]: in series [1], the solubility result is “soluble”. Further, in series [2], the “reduction in glucose sensitivity after storage” value is “no reduction in glucose sensitivity”.
As for `O=C(O)CCSC1=CC(=O)C(=O)c2ccccc21` [Compound B, 1,2-naphthalenedione-4-(3-mercaptopropionic acid)], the solubility result in series [1] (in base and neutral phosphate buffer at room temperature) is given as “soluble”. For the same compound, in series [2], the “reduction in glucose sensitivity after storage” value is recorded as “no reduction in glucose sensitivity”.
